Data from US9783519B2, “Palladium/silver co-catalyzed tandem reactions synthesis of phenylacetophenone derivatives by oxabenzonorbornadienes with terminal alkynes and their anti-tumor or anti-cancer activities” (Hong Kong Baptist University, priority 2015, dated 2017).
pIC50: −log10 of the molar value. Where two headings read alike, the source gives them in different places. One block for each compound: values may come before it.

Key:
[1] = test system: KYSE-150 (human oesophagus carcinoma); experiment: MTT cytotoxicity assay, KYSE-150; assay type: cell-based; settings: 48 hrs treatment
Protocol: (§1) Cytotoxic activities of all compounds were evaluated by MTT assay using KYSE-150 (human oesophagus carcinoma), MKN-45 (human gastric aednocarcinoma), DLD-1 (human colorectal carcinoma cell line), Hep G2 (human hepatocellular carcinoma). […] 3ag, 3al, 3an, 3ea and 3ha also have the same inhibitory effect on different cell lines with IC50 value lower than 10 μM. Thus, except 3ac, 3ad, 3ae, 3ah, and 3ab, the other compounds all exert definitely anti-cancer effect.
(§2) In this study, all compounds were dissolved in dimethyl sulfoxide (DMSO) to make stock solutions and further diluted in culture medium for this experiment. Human cancer cell lines, including one gastric adenocarcinoma cell line (MKN-45), one colon carcinoma cell line (DLD-1), one esophageal carcinoma cell line (KYSE-150) and one hepatocellular carcinoma cell line (HepG2) were cultured in RPMI 1640 or DMEM medium, containing 10% fetal bovine serum and 1% antibiotics (Penicillin and strep). The cell lines were cultured at 37° C. in a humidified environment containing 5% CO2. To determine the effects of the compounds on cell viability, a standard colorimetric 3-(4,5-dimethylthiazol-2-yl)-2,5-diphenyltetrazolium bromide (MTT) assay was used to test the cell number. Cells were seeded in a 96-well plate (4×10^3 cells/well) and allowed to attach overnight. After the recovery, cells were treated with 1.56, 3.125, 6.25, 12.5, 25, 50 μM of compounds in culture medium for 48 hrs. Then, 20 μL of MTT (5 mg/mL stock in PBS) per well was added into the medium (200 μL) and incubated for 4 hrs at 37° C. Finally, the culture medium was removed and 200 μL of DMSO were added to dissolve the purple formazan crystals. Absorbance of the solution was measured using microplate reader spectrophotometer (Bio-Rad Laboratories, Inc., Hercules, Calif.) at a wavelength of 570 nm.

[2] = test system: Hep G2 (human hepatocellular carcinoma); experiment: MTT cytotoxicity assay, Hep G2; assay type: cell-based; settings: HepG2, 48 hrs treatment
Protocol: as §1, §2

[3] = test system: KYSE-150, MKN-45, DLD-1, Hep G2; experiment: MTT cytotoxicity assay, summary over the test cell lines; assay type: cell-based; settings: Homo sapiens, summary of Table 6
Protocol: as §1, §2

[4] = test system: MKN-45 (human gastric aednocarcinoma); experiment: MTT cytotoxicity assay, MKN-45; assay type: cell-based; settings: 48 hrs treatment
Protocol: as §1, §2

KYSE-150 cells [5] = experiment: Wound healing assay; assay type: cell-based, human
KYSE-150 cells [6] = experiment: Wound healing assay; assay type: cell-based, human; settings: 48 h
Protocol: Original magnification, 5×.
Further, wound-healing assay was used to test whether those novel compounds could affect cell motility.
A wound-healing assay was performed as follows: cells were seeded in 12 wells plate at 50% confluence in completed medium. After 24 hrs seeding, the monolayer was wounded by scoring with a sterile plastic tip (1 mL), then washed several times with medium to remove cell debris and then incubated in conditioned medium in the absence or presence of tested compounds for various periods of time up to 48 h. […] Cell migration into the wound surface was monitored by Olympus IX71 microscopy and digitally photographed.

[7] = test system: DLD-1 (human colorectal carcinoma cell line); experiment: MTT cytotoxicity assay, DLD-1; assay type: cell-based; settings: 48 hrs treatment
Protocol: as §1, §2

[8] = on different (not all) cell lines, read-out: IC50, inhibitory effect on different cell lines
[9] = all test cell lines, read-out: IC50, cell growth-inhibiting effect against all test cell lines (below or near)

Compound: [2H]C(C(=O)c1ccccc1)c1ccc2ccccc2c1 (stereo not drawn) [Compound 3an, 2-(naphthalen-2-yl)-1-phenylethanone-2-D]
pIC50 [1]: 5.13 | pIC50 [2]: 4.66 | pIC50 [3, 8]: > 5.00 | melting point: 129 to 130 °C | pIC50 [4]: 4.37 | viability of KYSE-150 cells compared to controls (KYSE-150 cells [5]; 10 μM): did not alter the viability | cell migration into the wound (KYSE-150 cells [6]; 10 μM): did not migrate into the wound | pIC50 [7]: < 4.30

Compound: COc1ccc(OC)c2cc(CC(=O)c3ccccc3)ccc12 [Compound 3ba, 2-(5,8-dimethoxynaphthalen-2-yl)-1-phenylethanone]
pIC50 [1]: < 4.30 | pIC50 [2]: < 4.30 | melting point: 145 to 146 °C | pIC50 [4]: < 4.30 | pIC50 [7]: < 4.30

Compound: COc1ccccc1C(=O)Cc1ccc2ccccc2c1 [Compound 3ac, 1-(2-methoxyphenyl)-2-(naphthalen-2-yl) ethanone]
pIC50 [1]: < 4.30 | pIC50 [2]: < 4.30 | melting point: 100 to 102 °C | pIC50 [4]: < 4.30 | pIC50 [7]: < 4.30

Compound: C(#Cc1ccc2cc3c(cc2c1)OCO3)c1ccccc1 [Compound 3ha, 6-(phenylethynyl) naphtho [2,3-d][1,3] dioxole]
pIC50 [1]: 5.45 | pIC50 [2]: 6.19 | pIC50 [3, 8]: > 5.00 | melting point: 154 to 155 °C | pIC50 [4]: 4.68 | pIC50 [7]: 6.26

Compound: O=C(Cc1ccc2ccccc2c1)c1ccccc1 [Compound 3aa, 2-(naphthalen-2-yl)-1-phenylethanone]
pIC50 [1]: 4.96 | pIC50 [2]: 4.68 | melting point: 122 to 124 °C | pIC50 [4]: 4.81 | viability of KYSE-150 cells compared to controls (KYSE-150 cells [5]; 10 μM): did not alter the viability | cell migration into the wound (KYSE-150 cells [6]; 10 μM): did not migrate into the wound | pIC50 [7]: 4.91

Compound: Cc1ccc(C)c2cc(CC(=O)c3ccccc3)ccc12 [Compound 3ca, 2-(5,8-dimethylnaphthalen-2-yl)-1-phenylethanone]
pIC50 [1]: 4.72 | pIC50 [2]: < 4.30 | melting point: 123 to 124 °C | pIC50 [4]: < 4.30 | pIC50 [7]: < 4.30

Compound: C(#Cc1ccc2cc3c(cc2c1)OCCO3)c1ccccc1 [Compound 3ga, 7-(phenylethynyl)-2,3-dihydronaphtho [2,3-b][1,4] dioxine]
pIC50 [1]: 4.61 | pIC50 [2]: 4.35 | melting point: 130 to 132 °C | pIC50 [4]: 4.45 | viability of KYSE-150 cells compared to controls (KYSE-150 cells [5]; 10 μM): did not alter the viability | cell migration into the wound (KYSE-150 cells [6]; 10 μM): did not migrate into the wound | pIC50 [7]: 4.71

Compound: COc1cc(OC)cc(C(=O)Cc2ccc3ccccc3c2)c1 [Compound 3ae, 1-(3,5-dimethoxyphenyl)-2-(naphthalen-2-yl) ethanone]
pIC50 [1]: < 4.30 | pIC50 [2]: 4.37 | melting point: 70 to 71 °C | pIC50 [4]: < 4.30 | pIC50 [7]: < 4.30

Compound: O=C(Cc1ccc2cc(Br)c(Br)cc2c1)c1ccccc1 [Compound 3ea, 2-(6,7-dibromonaphthalen-2-yl)-1-phenylethanone]
pIC50 [1]: 5.62 | pIC50 [2]: 4.79 | pIC50 [3, 8]: > 5.00 | melting point: 152 to 154 °C | pIC50 [4]: 4.92 | viability of KYSE-150 cells compared to controls (KYSE-150 cells [5]; 10 μM): did not alter the viability | cell migration into the wound (KYSE-150 cells [6]; 10 μM): did not migrate into the wound | pIC50 [7]: 5.57

Compound: Cc1cc2ccc(CC(=O)c3ccccc3)cc2cc1C [Compound 3da, 2-(6,7-dimethylnaphthalen-2-yl)-1-phenylethanone]
pIC50 [1]: 5.11 | pIC50 [2]: < 4.30 | melting point: 142 to 144 °C | pIC50 [4]: 5.43 | viability of KYSE-150 cells compared to controls (KYSE-150 cells [5]; 5 μM): did not alter the viability | cell migration into the wound (KYSE-150 cells [6]; 5 μM): did not migrate into the wound | pIC50 [7]: 6.11

The next lines start with results.

melting point: 157 to 159 °C
Compound: O=C(Cc1ccc2ccccc2c1)c1ccc(Br)cc1 [Compound 3ai, 1-(4-bromophenyl)-2-(naphthalen-2-yl) ethanone]
pIC50 [1]: 5.69 | pIC50 [2]: 5.88 | pIC50 [3, 9]: ~5.00 | pIC50 [4]: 5.35 | pIC50 [7]: 5.48

melting point: 152 to 154 °C
Compound: N#Cc1ccc(C(=O)Cc2ccc3ccccc3c2)cc1 [Compound 3am, 4-(2-(naphthalen-2-yl)acetyl) benzonitrile]
pIC50 [1]: 4.48 | pIC50 [2]: < 4.30 | pIC50 [4]: < 4.30 | pIC50 [7]: < 4.30

melting point: 97 to 98 °C
Compound: O=C(Cc1ccc2ccccc2c1)c1ccc(CO)cc1 [Compound 3ak, 1-(4-(hydroxymethyl)phenyl)-2-(naphthalen-2-yl) ethanone]
pIC50 [1]: 4.50 | pIC50 [2]: < 4.30 | pIC50 [4]: < 4.30 | pIC50 [7]: 4.32

melting point: 139 to 141 °C
Compound: O=C(Cc1ccc2ccccc2c1)c1ccc(Oc2ccccc2)cc1 [Compound 3ag, 2-(naphthalen-2-yl)-1-(4-phenoxyphenyl) ethanone]
pIC50 [1]: 5.92 | pIC50 [2]: 5.32 | pIC50 [3, 8]: > 5.00 | pIC50 [4]: < 4.30 | pIC50 [7]: 5.31

melting point: 179 to 181 °C
Compound: O=C(Cc1ccc2ccccc2c1)c1ccc(C(F)(F)F)cc1 [Compound 3al, 2-(naphthalen-2-yl)-1-(4-(trifluoromethyl)phenyl) ethanone]
pIC50 [1]: 5.32 | pIC50 [2]: 4.52 | pIC50 [3, 8]: > 5.00 | pIC50 [4]: < 4.30 | pIC50 [7]: 4.43

melting point: 125 to 127 °C
Compound: COc1ccc(C(=O)Cc2ccc3ccccc3c2)cc1 [Compound 3ab, 1-(4-methoxyphenyl)-2-(naphthalen-2-yl) ethanone]
pIC50 [1]: 5.28 | pIC50 [2]: 5.12 | pIC50 [3, 9]: ~5.00 | pIC50 [4]: 5.00 | viability of KYSE-150 cells compared to controls (KYSE-150 cells [5]; 10 μM): did not alter the viability | cell migration into the wound (KYSE-150 cells [6]; 10 μM): did not migrate into the wound | pIC50 [7]: 5.10

melting point: 153 to 154 °C
Compound: O=C(Cc1ccc2ccccc2c1)c1ccc(OC(F)(F)F)cc1 [Compound 3ah, 2-(naphthalen-2-yl)-1-(4-(trifluoromethoxy)phenyl) ethanone]
pIC50 [1]: < 4.30 | pIC50 [2]: < 4.30 | pIC50 [4]: < 4.30 | pIC50 [7]: < 4.30

melting point: 144 to 146 °C
Compound: Cc1ccc(C(=O)Cc2ccc3ccccc3c2)cc1 [Compound 3aj, 2-(naphthalen-2-yl)-1-(p-tolyl) ethanone]
pIC50 [1]: 4.74 | pIC50 [2]: < 4.30 | pIC50 [4]: 4.92 | pIC50 [7]: < 4.30

melting point: 145 to 147 °C
Compound: O=C(Cc1ccc2ccccc2c1)c1ccc(F)cc1 [Compound 3af, 1-(4-fluorophenyl)-2-(naphthalen-2-yl) ethanone]
pIC50 [1]: 5.59 | pIC50 [2]: 5.37 | pIC50 [3, 9]: ~5.00 | pIC50 [4]: 5.39 | pIC50 [7]: 5.28

melting point: 102 to 103 °C
Compound: COc1cccc(C(=O)Cc2ccc3ccccc3c2)c1 [Compound 3ad, 1-(3-methoxyphenyl)-2-(naphthalen-2-yl) ethanone]
pIC50 [1]: < 4.30 | pIC50 [2]: < 4.30 | pIC50 [4]: < 4.30 | pIC50 [7]: < 4.30
